Assay results taken from patent publication US11033538B2, “Dosing regimens for the treatment of lysosomal storage diseases using pharmacological chaperones” (Amicus Therapeutics, Inc., priority 2007, dated 2021).
Values joined by “and” are separate entries in the source; they are usually repeats but may differ in a detail not shown here. Identical values can stand only once. “Also recorded” adds a separate entry of the source. Like-named read-outs stand apart in the source and are kept apart here.

Tests used:
[1] = Phase Ib twice-daily dose study of DGJ in healthy volunteers, plasma and urine pharmacokinetics; assay type: in vivo, human
Description: Subjects were housed in the treatment facility from 14 hours prior to dosing until 24 hours after dosing. Meals were controlled by schedule and subjects remained abulatory for 4 hours post drug administration
Blood samples (10 mL each) were collected in blood collection tubes containing EDTA before dosing and at the following times thereafter: 0.25, 0.5, 0.75, 1, 1.5, 2, 3, 4, 5, 6, 7, 8, 9, 10, 11 and 12 hours. Blood samples were cooled in an ice bath and centrifuged under refrigeration as soon as possible. Plasma samples were divided into two aliquots and stored at […]. pending assay. At the end of the study, all samples were transferred to MDS Pharma Services Analytical Laboratories (Lincoln) for analysis.

GL-3 [2] = test: Example 12, GL-3 levels in tissues of hR301Q GLA Tg/KO mice; assay type: in vivo; conditions: 3-300 mg/kg/day, 4 weeks; p<0.05 vs. untreated
Description: Tissue lysates from skin, heart, and kidney were prepared and tested for GLA activity (using 4-MUG as substrate, expressed in nmol/mg protein/hr), GLA protein (using immunoblotting of […] tissue lysate with anti-human GLA antibody) and GL-3 levels (using LC-MS/MS, expressed in mg/g of tissue weight). […] Each bar represents the mean±SEM of n=7-8 mice/group. Each lane in the Western blots represents one mouse from each group.

α-GAL [3] = assay type: in vivo, human
Description: Four male patients received a single 150 mg Q.O.D for 12 weeks (Group B); while five male patients received 150 mg Q.O.D. for 24 weeks (Group C). Finally nine female patients were randomized to receive one of three dosages: 50, 150 or 250 mg Q.O.D for 12 weeks (Group D) (FIG. 8).
Enzymatic activity of α-Gal in leukocytes (white blood cells; WBCs) of the patients was measured as a percentage of the average α-Gal activity in white blood cells of 15 healthy volunteers. α-GAL activity was assessed in fractionated tissue obtained from biopsies, and in blood leukocytes and plasma (from blood collected at baseline and every month).

GL-3 [4] = test: Example 5, skin GL-3 levels by light and electron microscopy; assay type: in vivo, human; conditions: 10 patients, baseline and after treatment
Description: Eight patients in the study received an ascending dose of 25, 100, and then 250 mg b.i.d. over 6 weeks, followed by 50 mg/day for the remainder of the study.
Skin GL-3 levels at baseline and after treatment as assessed by light and electron microscopy are available for 10 patients.

healthy male volunteers = test system: healthy male volunteers
Description: Safety was determined by evaluating vital signs, laboratory parameters (serum chemistry, hematology, and urinalysis), ECGs, physical examination and by recording adverse events during the Treatment Period.
Adverse events were coded using the MedDRA version 7.0 dictionary and summarized by treatment for the number of subjects reporting the adverse event and the number of adverse events reported. A by-subject adverse event data listing including verbatim term, coded term, treatment group, severity, and relationship to treatment was provided. Concomitant medications and medical history were listed by treatment.

GL-3 [5] = test: Example 8, GL-3 in tissues of transgenic mice expressing R301Q; assay type: in vivo; conditions: 100 mg/kg ad libitum, four weeks
Fabry patients [6] = test: Example 6, renal function (eGFR); assay type: in vivo, human; conditions: good responders
Description: Renal function was evaluated using glomerular filtration rate (GFR).
Renal function was measured using glomerular filtration rate (GFR) (MDRD equation was used to estimate GFR using serum creatinine adjusted for age, gender and race). Approximately half of all Fabry patients have an abnormally low GFR (<90 ml/min/1.73 m^2). […] As shown in FIG. 17A-B, the good responders maintained a mean eGFR within the normal eGFR range of 90-120 ml/min/1.73 m^2 during the entire treatment procedure (FIG. 17A), while the predicted mean eGFR level of untreated individual is projected to continue declining below 90 ml/min/1.73 m^2 (FIG. 17B).

lyso-Gb3 = test: Example 15, plasma lyso-Gb3; assay type: in vivo, human
Description: Plasma lyso-Gb3 and 24-hour urine GL-3 were analyzed by liquid chromatography-mass-spectroscopy using a novel stable isotope-labeled internal standard, 13C6-lyso-Gb3 (lower-limit-of-quantification: 0.200 ng/mL, 0.254 nmol/L).

[7] = Example 13, tissue half-life of DGJ; assay type: in vivo, mice; conditions: male, hR301Q GLA Tg/KO, mouse, oral; skin, heart, kidney; after 4 weeks 100 mg/kg/day
α-GAL [8] = test: Example 8, α-GAL activity in cell lines expressing Fabry missense mutations; assay type: cell-based
From the text: Cell lines were constructed to express one of 75 Fabry missense mutations. […] 20 of the 75 cell lines expressed a missense mutation corresponding to later-onset Fabry disease.

Fabry patients [9] = test: Example 6, cardiac analysis; assay type: in vivo, human
Description: In addition to the biopsies described above, MRIs, electrocardiograms and echocardiograms with strain rate evaluations was performed at baseline and periodically throughout the study to assess cardiac morphology (e.g., left ventricular hyertrophy) and cardiac function (e.g., ejection fraction and conduction/rhythm abnormalities).

[10] = human, plasma, oral, 50 mg, 50 mg bid, Day 1
[11] = human, plasma, oral, 50 mg, 50 mg bid, Day 7
[12] = human, plasma, oral, 150 mg, 150 mg bid, Day 1
[13] = human, plasma, po, 150 mg, oral 150 mg DGJ hydrochloride

OC[C@H]1NC[C@H](O)[C@@H](O)[C@H]1O [DGJ, (2R,3S,4R,5S)-2-(hydroxymethyl) piperdine-3,4,5-triol]
12 h cumulative renal excretion ([1]; 50 mg bid, Day 1): 16% and 16 ± 6%
12 h cumulative renal excretion ([1]; 50 mg bid, Day 7): 48% and 48 ± 7%
Cmin ([1]; 50 mg bid, Day 7): 0.4 ± 0.03 µM
dose dependence of Cmax ([1]; 50 mg to 150 mg): increased in a dose-proportional manner
12 h cumulative renal excretion ([1]; 150 mg bid, Day 1): 42% and 42 ± 7%
12 h cumulative renal excretion ([1]; 150 mg bid, Day 7): 60% and 60 ± 5%
Cmax ([1]; 150 mg bid, Day 7): 10.8 ± 1.4 µM
Cmin ([1]; 150 mg bid, Day 7): 1.2 ± 0.1 µM
time of peak concentrations, on average ([1]; all dose levels): approximately 3 hours
oral availability ([1]; healthy male volunteers): orally available
Cmax [1, 10]: 2.3 ± 0.3 µM
Tmax [1, 10]: 2.9 ± 0.4 h
Cmax [1, 11]: 3.9 ± 0.5 µM
Tmax [1, 11]: 2.5 ± 0.4 h
Cmax [1, 12]: 11.3 ± 1.5 µM
Tmax [1, 12]: 3.1 ± 0.4 h
Tmax ([1]; human, plasma, oral, 150 mg, 150 mg bid, Day 7): 2.9 ± 0.4 h
half-life ([1]; human, plasma, oral, 50 mg bid, Day 1, read-out: t½ (converted)): 2.5 h
half-life ([1]; human, plasma, oral, 150 mg bid, Day 1, read-out: t½ (converted)): 2.4 h
Cmax [1, 13]: 9 µM
Tmax [1, 13]: 3 h
half-life ([1]; human, plasma, po, 150 mg, read-out: Half-life (exponential decay) (converted)): 3 h
GL-3 levels in skin, heart, kidney (GL-3 [2]): significant reduction in GL-3 levels
mean increase in WBC α-Gal activity (α-GAL [3]; eleven good responders, male, pre vs post treatment): 630%
mean increase in leukocyte α-Gal activity (α-GAL [3]; four moderate responders, male): 170%
number of good responders (α-Gal activity) (α-GAL [3]; male patients, Groups A-C): eleven
number of moderate responders (α-Gal activity) (α-GAL [3]; male patients, Groups A-C): four
number of non responders (α-Gal activity) (α-GAL [3]; male patients, Groups A-C): two
mean increase in WBC α-Gal activity compared to baseline (α-GAL [3]; nine female patients, Group D (50, 150 or 250 mg Q.O.D, 12 weeks)): 146%
leukocyte or kidney α-Gal activity (α-GAL [3]; non responders, male): None of the “non” responders exhibited any overall increase
mean increase in kidney α-Gal activity (α-GAL [3]; one moderate responder, male): 100%
mean increase in kidney α-Gal activity (α-GAL [3]; six of the good responders, male): 1090%
skin GL-3 levels (GL-3 [4]): Seven patients had skin GL-3 levels that were normal or near normal both before and after treatment; also recorded: Results for the three other patients were difficult to interpret
safety and tolerability (healthy male volunteers; 50 mg b.i.d. and 150 mg b.i.d., 7 days): safe and well tolerated
adverse events (AEs) (healthy male volunteers; 50 mg b.i.d. or 150 mg b.i.d.): no subject presented with AEs
tolerability (healthy male volunteers; 50 and 150 mg twice daily for 7 days): generally well-tolerated at all doses
vital sign, ECG, physical examination (healthy male volunteers; 50 or 150 mg b.i.d.): No clinically relevant abnormality occurred in any vital sign, ECG, or physical examination parameter
serious adverse events (healthy male volunteers; any treatment group): no serious adverse events
GL-3 aggregates, histology of renal tube and cardiac sections (GL-3 [5]): presence of GL-3 aggregates was reduced
concentration of GL-3 in the sampled tissues (GL-3 [5]): reduced
mean eGFR maintained during the entire treatment (Fabry patients [6]): 90-120 ml/min/1.73 m^2
Mean plasma lyso-Gb3 (lyso-Gb3; after 6 months of DGJ, baseline 118±48, N=8 males, p=0.0004): 75 ± 42 nM
plasma lyso-Gb3 levels (lyso-Gb3; six months of DGJ, mITT-suitable, p=0.0033): significant reduction in plasma lyso-Gb3 levels compared to placebo
plasma lyso-Gb3 (lyso-Gb3; switching from placebo to DGJ between 6 and 12 months, p<0.0001): significant reduction in plasma lyso-Gb3
half-life [7]: 6 to 7 h
cell lines in which DGJ enhanced α-GAL activity (α-GAL [8]; 47 of the 75 cell lines): 63%
cell lines with increase in enzymatic activity (α-GAL [8]; classic Fabry mutations, 34 of 57 cell lines): 60%
cell lines with increase in α-GAL activity (α-GAL [8]; later-onset Fabry mutations, 19 of 20 cell lines): 95%
left ventricle mass (Fabry patients [9]; 2 good responders with abnormally high left ventricle mass, 48 weeks): no change in left ventricle mass
decrease in left ventricle mass (Fabry patients [9]; one good responder with abnormally high left ventricle mass, 12 weeks): 8%
ejection fraction following treatment (Fabry patients [9]; two of three good responders with abnormal ejection fraction before treatment): > 55%
